Source: patent US20030186345A1, “Macromolecular enzyme substrates” (priority 2003, published 2003)
Blank lines part the entries; values can stand above or below the compound they belong to. *1 amine or outer side, *2 acyl side, *3 side chain or, on linkers, in order; H or OH if unused. Where a SMILES comes first, the peptide text is derived from it. [ ]: non-standard residue; d: D form. The star is where a group is joined. pNA = O=[N+]([O-])c1ccc(N*)cc1; Suc = O=C(CCC(=O)[*:2])[*:1]

Experiments:
thrombin [1] = molecular target: T1, thrombin (Homo sapiens, UniProt P00734); assay: Cleavage of pNA substrates by thrombin, kinetic parameters; assay type: biochemical; set-up: Human thrombin, bovine chymotrypsin; purchased Sigma Chemical Co. (St. Louis, Mo.); settings: 37° C.; means of triplicates
Method: Measurements of protease activity at 25° C. or 37° C. were performed and analyzed as previously described (Hortin and Trimpe, J. Biol. Chem. 266:6866-6871, 1991) with a Cobas FARA analyzer (Roche Diagnostic Systems, Somerville, N.J.). […] Kinetic parameters were calculated from initial rates of reactions using Lineweaver-Burke plots. […] These reactions were performed in 100 mM tris(hydroxymethyl)-aminomethane pH 7.8 with 10 mm CaCl2. Substrate concentration were determined by absorbance at 342 nm, using an extinction coefficient of 8,260 mol^−1 and several concentrations were confirmed by absorbance measures at 405 or 410 nm after substrate hydrolysis, with extinction coefficient of 9,900 or 8,600 mol^−1, respectively, for the p-nitroaniline product (Lottenberg and Jackson, Biochim. Biophys. Acta 742:558-564, 1983). Molar concentration of chymotrypsin was determined by active site titration with p-nitrophenyl guanidinobenzoate and thrombin concentrations by titration with highly purified hirudin.

trypsin = molecular target: T2, trypsin (Bos taurus, UniProt P00760); assay: Inhibition of substrate cleavage by α2-macroglobulin, trypsin; assay type: biochemical, bovine; settings: excess inhibitor
T2 construct: purchased Worthington Biochemicals Co. (trypsin); Calbiochem (α2-macroglobulin)
T2 sequence (P00760 24-246): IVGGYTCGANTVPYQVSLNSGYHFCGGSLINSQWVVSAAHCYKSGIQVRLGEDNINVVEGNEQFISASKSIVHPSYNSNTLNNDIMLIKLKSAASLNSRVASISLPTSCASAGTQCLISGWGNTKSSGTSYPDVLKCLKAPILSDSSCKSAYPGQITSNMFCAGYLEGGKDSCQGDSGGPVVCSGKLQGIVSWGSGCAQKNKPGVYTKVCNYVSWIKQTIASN
Method: (§2) Measurements of protease activity at 25° C. or 37° C. were performed and analyzed as previously described (Hortin and Trimpe, J. Biol. Chem. 266:6866-6871, 1991) with a Cobas FARA analyzer (Roche Diagnostic Systems, Somerville, N.J.). […] Kinetic parameters were calculated from initial rates of reactions using Lineweaver-Burke plots. […] These reactions were performed in 100 mM tris(hydroxymethyl)-aminomethane pH 7.8 with 10 mm CaCl2. Substrate concentration were determined by absorbance at 342 nm, using an extinction coefficient of 8,260 mol^−1 and several concentrations were confirmed by absorbance measures at 405 or 410 nm after substrate hydrolysis, with extinction coefficient of 9,900 or 8,600 mol^−1, respectively, for the p-nitroaniline product (Lottenberg and Jackson, Biochim. Biophys. Acta 742:558-564, 1983). […] Trypsin concentration was estimated based on weight, assuming 100% activity. For studies of trypsin and thrombin, α2-macro-globulin was pretreated with a 200-fold molar excess of p-amidinophenylmethyl-sulfonylfluoride in order to inactivate any protease trapped within the inhibitor and left at 4° C. for 72 hours before use to allow complete decay of the sulfonylfluoride.

thrombin [2] = molecular target: T1, thrombin; assay: Inhibition of substrate cleavage by α2-macroglobulin, thrombin; assay type: biochemical; set-up: Human thrombin, bovine chymotrypsin; purchased Sigma Chemical Co. (thrombin); Calbiochem (α2-macroglobulin); settings: excess inhibitor
Method: as §2

salivary amylase [3] = molecular target: T3, salivary amylase (Homo sapiens, UniProt P0DUB6); assay: Amylase assay, Km determination, salivary amylase; assay type: biochemical; settings: 37° C.; HEPES buffer pH 7.15
T3 construct: purchased Sigma (St. Louis, Mo.)
T3 sequence (P0DUB6 16-511): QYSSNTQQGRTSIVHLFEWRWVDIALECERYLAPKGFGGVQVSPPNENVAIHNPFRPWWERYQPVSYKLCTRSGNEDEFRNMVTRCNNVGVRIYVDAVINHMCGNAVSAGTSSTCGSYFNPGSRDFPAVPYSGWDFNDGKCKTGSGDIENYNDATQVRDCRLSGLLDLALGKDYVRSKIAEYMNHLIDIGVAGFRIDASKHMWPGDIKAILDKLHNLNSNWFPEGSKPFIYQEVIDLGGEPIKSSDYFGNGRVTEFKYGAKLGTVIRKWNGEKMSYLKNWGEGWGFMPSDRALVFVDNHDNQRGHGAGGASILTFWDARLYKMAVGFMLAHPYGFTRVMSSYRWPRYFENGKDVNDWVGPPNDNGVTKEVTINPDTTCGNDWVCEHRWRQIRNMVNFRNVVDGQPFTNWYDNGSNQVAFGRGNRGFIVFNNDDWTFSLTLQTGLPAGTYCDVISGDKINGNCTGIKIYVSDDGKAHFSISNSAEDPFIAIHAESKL
Method: (§1) Amylase assays using oligosaccharide substrates were automated using a Cobas Fara analyzer (Roche, Basel, Switzerland). Unless indicated, assay temperature was 37° C., and absorbance changes were measured at 405 nm every minute over a 20 minute period. Assay buffer was either 52.5 mmol/L 4-(2-hydroxyethyl)-1-piperazine-ethanesulfonic acid (HEPES) buffer, pH 7.15, 87 mmol/L sodium chloride, 12.6 mmol/L magnesium chloride, 0.075 mmol/L calcium chloride (HEPES buffer) or 50 mmol/L MES, pH 6.0, 350 mmol/L sodium chloride, 6 mmol/L calcium acetate, 900 mmol/L KSCN (MES buffer). Amylases were diluted into assay buffer containing 1 mg/mL rabbit albumin. Final reaction volumes were 200 μL and consisted of 3 solutions, R1, R2, and R3. […] Depending upon the assay, R2 and R3 contained either amylase or substrate. R1 and R2 solutions were mixed for 10 seconds prior to the addition of R3. For immunoinhibition studies, antibodies were preincubated with amylase (R2) for 30 minutes at room temperature prior to the addition of substrate (R3). Unless indicated, final concentrations of MABs were 10 mg/L. Reaction blanks were determined by measuring the absorbance of substrate or enzyme alone at 405 nm. When EtG7pNP or mPEG-EtG7pNP were used as substrates, α-glucosidase was included in the blank measurement. Differences between the test samples and reagent blanks were determined. Activity of stock solutions of amylase was based on activity measured with a Hitachi 917 analyzer using a Roche kit (Cat. No 1876473) (Indianapolis, Ind.) which uses EtG7pNP as the substrate. For Km determinations, 4 or 5 different substrate concentrations (0.05 mmol/L to 6 mmol/L) with salivary (4-20 U/L) or pancreatic (4-40 U/L) amylase were used.

pancreatic amylase [4] = molecular target: T4, pancreatic amylase (Homo sapiens, UniProt P04746); assay: Amylase assay, Km determination, pancreatic amylase; assay type: biochemical; settings: 37° C.; HEPES buffer pH 7.15
T4 construct: purchased Scripps Laboratories (San Diego, Calif.)
T4 sequence (P04746 16-511): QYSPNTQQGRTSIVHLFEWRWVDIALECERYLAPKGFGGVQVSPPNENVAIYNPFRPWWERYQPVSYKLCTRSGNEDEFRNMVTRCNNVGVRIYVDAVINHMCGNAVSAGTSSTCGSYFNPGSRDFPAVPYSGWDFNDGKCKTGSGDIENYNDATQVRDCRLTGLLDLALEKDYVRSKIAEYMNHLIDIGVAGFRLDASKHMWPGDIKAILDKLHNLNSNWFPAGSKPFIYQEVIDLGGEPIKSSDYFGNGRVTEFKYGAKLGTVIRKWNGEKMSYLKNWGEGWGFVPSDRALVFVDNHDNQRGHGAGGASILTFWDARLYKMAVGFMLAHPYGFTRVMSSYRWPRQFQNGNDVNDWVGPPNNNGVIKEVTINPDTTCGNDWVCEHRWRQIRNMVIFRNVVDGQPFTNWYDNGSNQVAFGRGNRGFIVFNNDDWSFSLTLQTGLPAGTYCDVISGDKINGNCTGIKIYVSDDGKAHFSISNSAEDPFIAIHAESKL
Method: as §1, with “Assay buffer was either 52.5 mmol/L 4-(2-hydroxyethyl)-1-piperazine-ethanesulfonic acid (HEPES) buffer, pH 7.15, 87 mmol/L sodium chloride, 12.6 mmol/L magnesium chloride, 0.075 mmol/L calcium chloride (HEPES buffer) or 50 mmol/L MES, pH 6.0, 350 mmol/L sodium chloride, 6 mmol/L calcium acetate, 900 mmol/L KSCN (MES buffer).” left out

salivary amylase [5] = molecular target: T3, salivary amylase; assay: Immunoinhibition by MABs, salivary amylase, oligosaccharide substrates; assay type: biochemical; settings: salivary isoenzyme, 20 U/I (G5, G7 substrates) or 600 U/I (G3 substrates), 100% = no MAB
Method: as §1
When both MABs were used, MAB 88E8 concentrations were varied in the presence of 10 mg/L MAB 66C7. At an antibody concentration of 10 mg/L, MAB 88E8 inhibits 98% of salivary amylase activity in HEPES buffer and 34% of salivary amylase activity in MES buffer. MAB 66C7 increases salivary amylase activity in HEPES buffer and has no effect on salivary amylase activity in MES buffer. Using a mixture of MABs 88E8 and 66C7 at concentrations of […], >99% of salivary amylase activity is inhibited in HEPES buffer and 73% of salivary amylase activity is inhibited in MES buffer. When the pH of the MES buffer was increased from 6.0 to 6.5 and the concentration of KSCN was decreased from 900 mmol/L to 300 mmol/L, >97% of salivary amylase activity was inhibited by MAB 88E8.

pancreatic amylase [6] = molecular target: T4, pancreatic amylase; assay: Immunoinhibition by MABs, pancreatic amylase, oligosaccharide substrates; assay type: biochemical; settings: pancreatic isoenzyme, 40 U/I (G5, G7 substrates) or 400 U/I (G3 substrates), 100% = no MAB
Method: as §1

chymotrypsin = chymotrypsin (Bos taurus, UniProt P00766); assay: Inhibition of substrate cleavage by α2-macroglobulin, chymotrypsin
Method: Measurements of protease activity at 25° C. or 37° C. were performed and analyzed as previously described (Hortin and Trimpe, J. Biol. Chem. 266:6866-6871, 1991) with a Cobas FARA analyzer (Roche Diagnostic Systems, Somerville, N.J.). […] Kinetic parameters were calculated from initial rates of reactions using Lineweaver-Burke plots. […] These reactions were performed in 100 mM tris(hydroxymethyl)-aminomethane pH 7.8 with 10 mm CaCl2. Substrate concentration were determined by absorbance at 342 nm, using an extinction coefficient of 8,260 mol^−1 and several concentrations were confirmed by absorbance measures at 405 or 410 nm after substrate hydrolysis, with extinction coefficient of 9,900 or 8,600 mol^−1, respectively, for the p-nitroaniline product (Lottenberg and Jackson, Biochim. Biophys. Acta 742:558-564, 1983). Molar concentration of chymotrypsin was determined by active site titration with p-nitrophenyl guanidinobenzoate and thrombin concentrations by titration with highly purified hirudin. Trypsin concentration was estimated based on weight, assuming 100% activity. For studies of trypsin and thrombin, α2-macro-globulin was pretreated with a 200-fold molar excess of p-amidinophenylmethyl-sulfonylfluoride in order to inactivate any protease trapped within the inhibitor and left at 4° C. for 72 hours before use to allow complete decay of the sulfonylfluoride.

[7] = test system: C[C@H](NC(=O)CCC(=O)O)C(=O)N[C@@H](C)C(=O)N1CCC[C@H]1C(=O)N[C@@H](Cc1ccccc1)C(=O)Nc1ccc([N+](=O)[O-])cc1; assay: purified protein, by the assay type; settings: other: 37° C., means of triplicates, pH 7.8
20S proteasomes = molecular target: T5, 20S proteasomes (Methanosarcina thermophila, UniProt Q9P992); assay: Substrate cleavage by 20S proteasomes; assay type: biochemical
T5 construct: purchased Calbiochem (La Jolla, Calif.); host or cells: Escherichia coli
T5 sequence (Q9P992 10-210): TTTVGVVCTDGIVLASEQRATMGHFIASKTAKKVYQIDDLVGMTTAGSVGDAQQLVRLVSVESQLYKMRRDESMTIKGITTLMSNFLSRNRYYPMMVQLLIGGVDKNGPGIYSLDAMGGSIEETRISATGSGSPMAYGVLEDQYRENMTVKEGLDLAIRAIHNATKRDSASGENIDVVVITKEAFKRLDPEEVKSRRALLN
T5 sequence (Q59565 1-247 partner): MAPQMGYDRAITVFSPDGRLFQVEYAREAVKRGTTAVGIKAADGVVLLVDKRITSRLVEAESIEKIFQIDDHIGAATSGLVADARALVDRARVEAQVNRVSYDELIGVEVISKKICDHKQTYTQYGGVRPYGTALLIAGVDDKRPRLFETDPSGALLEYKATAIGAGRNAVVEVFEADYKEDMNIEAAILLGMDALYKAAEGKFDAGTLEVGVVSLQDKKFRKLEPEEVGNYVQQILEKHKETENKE
Method: Enzyme assays. Assays of proteasome activity were performed at 37° C. unless otherwise indicated. […] Reactions were in a buffer consisting of 100 mM Tris(hydroxymethyl)aminomethane, pH 7.2 with 1 mM dithiothreitol.

Compound: CC(=O)N[C@H](Cc1ccccc1)C(=O)N1CCCC[C@H]1C(=O)N[C@@H](CCCNC(=N)N)C(=O)Nc1ccc([N+](=O)[O-])cc1 [Ac-D-Phe-Pip-Arg-pNA]
Km (thrombin [1]): 23 µM | kcat (thrombin [1]): 3.0 S^−1

Compound: CC[C@@H](C)[C@@H](N)C(=O)N1CCC[C@H]1C(=O)N[C@@H](CCCNC(=N)N)C(=O)Nc1ccc([N+](=O)[O-])cc1 [D-Ile-Pro-Arg-pNA] (H-[dI]-Pro-Arg-pNA)
Inhibition of trypsin activity by excess α2-macroglobulin (trypsin): 40-50% | Km (thrombin [1]): 12 µM | kcat (thrombin [1]): 105 S^−1

Compound: N=C(N)NCCC[C@H](NC(=O)[C@@H]1CCCCN1C(=O)[C@H](N)Cc1ccccc1)C(=O)Nc1ccc([N+](=O)[O-])cc1 [D-Phe-Pip-Arg-pNA]
Km (thrombin [1]): 6.1 µM | kcat (thrombin [1]): 65 S^−1 | Inhibition of thrombin activity by excess α2-macroglobulin (thrombin [2]): 40-50%

Km (salivary amylase [3]): 400 µM | Km (pancreatic amylase [4]): 280 µM | % activity with MAB 88E8 + 66C7 (salivary amylase [5]): 2% | % activity with MAB 66C7 (salivary amylase [5]; MAB 10 mg/L): 105% | % activity with MAB 88E8 (salivary amylase [5]; MAB 10 mg/L): 6% | % activity with MAB 88E8 + 66C7 (pancreatic amylase [6]): 95% | % activity with MAB 66C7 (pancreatic amylase [6]; MAB 10 mg/L): 103% | % activity with MAB 88E8 (pancreatic amylase [6]; MAB 10 mg/L): 101%
Compound: O=[N+]([O-])c1ccc(OC2OC(CO)C(OC3OC(CO)C(OC4OC(CO)C(OC5OC(CO)C(OC6OC(CO)C(O)C(O)C6O)C(O)C5O)C(O)C4O)C(O)C3O)C(O)C2O)cc1 [Substrate G5pNP, p-nitrophenyl-α-D-maltopentaoside]

Compound: C[C@H](NC(=O)CCC(=O)O)C(=O)N[C@@H](C)C(=O)N1CCC[C@H]1C(=O)N[C@@H](Cc1ccccc1)C(=O)Nc1ccc([N+](=O)[O-])cc1 [Suc-Ala-Ala-Pro-Phe-pNA, succinyl-Ala-Ala-Pro-Phe-pNA] (Suc-AAPF-pNA)
Maximal inhibition of chymotrypsin activity by excess α2-macroglobulin (chymotrypsin; increasing α2-macroglobulin added to a fixed amount of chymotrypsin): about 60%

Compound: bovine chymotrypsin (Bos taurus)
Km [7]: 40 µM | kcat [7]: 120 s⁻¹ | kcat/Km [7]: 3e+06 M⁻¹ s⁻¹

Compound: succinyl-Ala-Ala-Phe-p-nitroanilide [Suc-Ala-Ala-Phe-pNA]
Rate of substrate cleavage by 20s proteasomes (20S proteasomes; each substrate at 1 mM, 37° C., mean ± SD): 0.0061 ± 0.0001 ΔA405/10 min | Rate of cleavage greater than Ala-Ala-Phe-pNA (20S proteasomes; substrate 0.5-3 mM, 30-50° C.): 50-100% | Rate Plus α2-M (chymotrypsin; chymotrypsin 2.5 μg/ml, 0.5 mM substrate, after incubation with excess α2-macroglobulin (250 μ/ml), means ± SD): 12.3 ± 0.1 µmol/L/min | Rate Minus α2-M (chymotrypsin; chymotrypsin 2.5 μg/ml, 0.5 mM substrate, before incubation with α2-macroglobulin, means ± SD): 21.7 ± 0.2 µmol/L/min | Inhibition of substrate cleavage by α2-macroglobulin (chymotrypsin; chymotrypsin 2.5 μg/ml, 0.5 mM substrate, excess α2-macroglobulin): 43%
